This assay concerns the target Human immunodeficiency virus type 1 protease (Human immunodeficiency virus 1) (UniProt Q72874). The assay can be described thus: Concentration which reduced the concentration of HIV viral RNA by 90% from the level measured in an untreated infected culture. The format is functional.
Turning to `N=C(NO)c1cccc(N2C(=O)N(c3cccc(/C(N)=C\O)c3)[C@H](Cc3ccccc3)[C@H](O)[C@H]2CCc2ccccc2)c1`, the Log 1/IC90 came out at 7.31. In the case of `O=C1N(c2ccccc2)[C@H](CCc2ccccc2)[C@@H](O)[C@@H](Cc2ccccc2)N1c1ccccc1`, the Log 1/IC90 was 5.55. For `O=C1N(c2cccc(CO)c2)[C@H](CCc2ccccc2)[C@@H](O)[C@@H](Cc2ccccc2)N1c1cccc(CO)c1`, the Log 1/IC90 stood at 6.96. On to `NC(=O)c1cc(N2C(=O)N(c3ccc(F)c(C(N)=O)c3)[C@H](Cc3ccccc3)[C@H](O)[C@H]2CCc2ccccc2)ccc1F`, for which the Log 1/IC90 amounted to 6.31.

As to `NC(=O)c1cccc(N2C(=O)N(c3cccc(C(N)=O)c3)[C@H](Cc3ccccc3)[C@H](O)[C@H]2CCc2ccccc2)c1`, the Log 1/IC90 was 7.46.

`Nc1cccc(N2C(=O)N(c3cccc(N)c3)[C@H](Cc3ccccc3)[C@H](O)[C@H]2CCc2ccccc2)c1` yielded a Log 1/IC90 of 6.44. The figure for `Nc1cc(N2C(=O)N(c3ccc(F)c(N)c3)[C@H](Cc3ccccc3)[C@H](O)[C@H]2CCc2ccccc2)ccc1F` is 7.44; for `O=C1N(c2cccc(O)c2)[C@H](CCc2ccccc2)[C@@H](O)[C@@H](Cc2ccccc2)N1c1cccc(O)c1` it is 6.94; for `N#Cc1cccc(N2C(=O)N(c3cccc(C#N)c3)[C@H](Cc3ccccc3)[C@H](O)[C@H]2CCc2ccccc2)c1` it is 5.8. The figure for `Nc1ccc(N2C(=O)N(c3ccc(N)c(F)c3)[C@H](Cc3ccccc3)[C@H](O)[C@H]2CCc2ccccc2)cc1F` is 6.27; for `CNc1cccc(N2C(=O)N(c3cccc(NC)c3)[C@H](Cc3ccccc3)[C@H](O)[C@H]2CCc2ccccc2)c1` it is 6.48. In turn, `O=C1N(c2ccc(CO)cc2)[C@H](CCc2ccccc2)[C@@H](O)[C@@H](Cc2ccccc2)N1c1ccc(CO)cc1` returned a Log 1/IC90 of 5.44.

Values taken from ChEMBL document CHEMBL1142783, “Hydrophobicity in the design of P2/P2' tetrahydropyrimidinone HIV protease inhibitors” (Bioorg Med Chem Lett, 2005).
